How the values were obtained:
[1] = test system: SH-SY5Y and PC12 cells; assay: MTT (cell viability) test, SNP-induced cell death; type: cell-based
[2] = test system: SH-SY5Y cells; assay: Inhibition of ROS production (DCFH-DA fluorescence); type: cell-based, human; details: hydrogen peroxide-induced, 2 hours pretreatment
Description: (§1) The incubator was maintained at a temperature of 37° C., and a mixed gas of 95% air and 5% CO2 was continuously supplied thereto to provide suitable conditions for cell culture. The cells were cultured in a 6-well plate or a 96-well plate at each of densities of 1×10^6 and 2×10^4 cells/well 24 hours before the experiment. […] Sulfuretin was used in ethanol and used at a final concentration of 0.1% or less.
In order to measure ROS elimination activity, cells were labeled with DCFH-DA fluorescence, and quantitative analysis was performed using a fluorescence meter.
Specifically, the 6-well plate in which the cells have been cultured was pretreated with sulfuretin for 2 hours, and then reacted with hydrogen peroxide for 30 minutes to induce ROS. Then, 10 μl of 10 mM DCFH-DA was added to the plate and allowed to react with the cells for 30 minutes. Herein, DCFH-DA in the incubator was covered with a foil such that it would not be exposed to light. The cells that reacted with the DCFH-DA fluorescent substance were detached using cold PBS and centrifuged at 400 g for 3 minutes. The centrifugation process was repeated twice to wash the fluorescent substance. The washed cells were briefly stirred with 1 ml of PBS, and 100 μl was dispensed into each of a fresh 96-well plate. Then, fluorescence was measured at an excitation wavelength of 488 nm and an emission wavelength of 515 nm using a fluorescence meter (Perkinelmer, USA).
The measured value was substituted into the following equation to calculate ROS production:
ROS production (%)=[(O.D. of control−O.D. of test group)/O.D. of control]×100

[3] = test system: SH-SY5Y cells; assay: Inhibition of intracellular [Ca2+] influx (Fura-2-AM fluorescence); type: cell-based, human; details: hydrogen peroxide-induced, 30 minutes pretreatment
Description: as §1
In order to measure inhibitory effects on intracellular [Ca^2+] influx caused by oxidative stress, cells were labeled with Fura-2-AM fluorescence, and quantitative analysis was carried out using a fluorescence meter. Specifically, 10 μl of 5 μM Fura-2-AM was added to each well of the 6-well plate (in which the cells have been cultured) and then allowed to react for 30 minutes. Herein, Fura-2-AM in the incubator was covered with a silver foil such that it would not be exposed to light. After completion of the incubation, the plate was pretreated with sulfuretin for 30 minutes, and then reacted with hydrogen peroxide for 30 minutes to induce the intracellular influx of [Ca^2+]. Then, the cells that reacted with the Fura-2-AM fluorescent substance were washed twice with cold HEPES and detached with HEPES. Then, the cells were centrifuged at 400 g for 3 minutes. The supernatant was removed carefully, stirred weakly with 0.5 ml of HEPES buffer, and then 150 μl was dispensed into each well of a fresh 96-well plate. The fluorescence of the sample dispensed into the fresh 96-well plate was measured at an excitation wavelength of […] and an emission wavelength of 520 nm using a fluorescence meter (Perkinelmer, USA).
The measured value was substituted into the following equation to calculate intracellular [Ca^2+] nM: […]

[4] = test system: caspase-3; assay: Western blot, caspase-3 expression; type: cell-based, human; details: SH-SY5Y cells
Description: as §1
In order to identify the effect of sulfuretin on the expression of proteins related to dementia, Alzheimer's disease, Parkinson's disease and strokes, a Western blot test was carried out.
After 24 hours, the supernatant of each well was collected and centrifuged at 400 g for 3 minutes, and the cells were washed with cold PBS and lysed with 100 μl of T-PER lysis buffer (Thermo, USA) for 30 minutes. The lysates were centrifuged at 10000 g at 4° C. for 15 minutes, and the supernatants were stored at […] until use as test samples. Proteins were quantitatively analyzed using a BCA assay kit (Thermo, USA) and separated within 8.5-12% SDS gel and then transferred to PVDF membranes. To examine the expression of the proteins, the development of fluorescence was analyzed by enhanced chemiluminescence (ECL). Specifically, the membrane was blocked with 5% skimmed non-fat milk for 1 hour and labeled with the primary antibodies, PARP, caspase-3, phospho-p38, phospho-JNK and β-actin at 4° C. overnight. Then, the membrane was washed three times with Tris-tween buffered saline (TTBS), and then labeled with horseradish peroxidase (HRP)-conjugated anti-rabbit and anti-mouse secondary antibodies at room temperature for 1 hour. Then, the membrane was washed five times with TTBS for 10 minutes. The washed film was developed by ECL using x-ray films, and concentrations were quantitatively analyzed using quantitative analysis program (Fujifilm, Japan).

[5] = test system: mice; assay: Scopolamine-induced learning and memory deficits, step-through passive avoidance test; type: in vivo
Description: Male ICR mice (4-weeks-old, 18-20 g) were purchased from Koatech Co., Ltd. (Pyongtaek, Korea). Mice were housed 10 per cage, allowed access to water and food ad libitum, and maintained in constant temperature (23±1° C.) and humidity (55±5%) conditions under a 12 hour light/dark cycle (lights on 07:00 to 19:00 h). All experiments were conducted in accord with the NIH Guide for the Care and Use of Laboratory Animals and with the approval of the Institutional Animal Care and Use Committee of Sungkyunkwan University.
Assessment of the training or test trials of the passive avoidance test was carried out in identical illuminated and non-illuminated compartments (12×10×12 cm) containing 2-mm stainless steel rods spaced 0.5 cm apart. A 50 W lamp positioned 1 meter above both chambers illuminated the apparatuses. Briefly, the mice underwent two separate trials, a training trial and a test trial 24 hours later. For the training trial, mice were initially placed in the clear chamber. When they entered the dark chamber, the door closed and a 3-sec electrical foot shock (0.5 mA) was delivered through the stainless steel rods. One hour before each training trial, mice were given sulfretin (0.25, 0.5, or 1 mg/kg, p.o.). After 30 minutes, memory impairment was induced by administering scopolamine (0.5 mg/kg, i.p.). Twenty-four hours after the training trial, mice were placed in the illuminated chamber for the test trial. The time for the mouse to enter the dark compartment after the door opening was defined as latency for both training and test trials. Latencies were recorded for up to 300 s. To avoid a ceiling effect in unimpaired animals, sulfuretin alone was administered 1 hour before the training trial without scopolamine treatment. The intensity of electrical foot shock was set at 0.25 mA for 3 seconds. This lower intensity shock allowed for a behavioral window through which to detect any enhancing effect of sulfuretin.

[6] = test system: SH-SY5Y cells; assay: LDH assay, amyloid beta25-35-induced cytotoxicity; type: cell-based, human; details: pretreatment with sulfuretin at 2.5, 5, 10 and 20 μM; 20 μM amyloid beta25-35 for 24 h (p<0.001)

## O=C1/C(=C/c2ccc(O)c(O)c2)Oc2cc(O)ccc21 [sulfuretin]
[1]; sulfuretin 0.1 μg/ml
  viability at 0.1 µg/mL: ≥ 44%
[1]; sulfuretin 0.5 μg/ml
  viability at 0.5 µg/mL: ≥ 56%
[1]; sulfuretin 1 μg/ml
  viability at 1 µg/mL: ≥ 64%
[1]; sulfuretin 5 μg/ml
  viability at 5 µg/mL: ≥ 163%
[2]; sulfuretin 0.1 μg/ml
  ROS production: ≤ 147%
[2]; sulfuretin 0.5 μg/ml
  ROS production: ≤ 126%
[2]; sulfuretin 1 μg/ml
  ROS production: ≤ 123%
[2]; sulfuretin 5 μg/ml
  ROS production: ≤ 103%
[3]; sulfuretin 0.1 μg/ml
  intracellular [Ca2+] influx: ≤ 566 nM
[3]; sulfuretin 0.5 μg/ml
  intracellular [Ca2+] influx: ≤ 395 nM
[3]; sulfuretin 1 μg/ml
  intracellular [Ca2+] influx: ≤ 371 nM
[3]; sulfuretin 5 μg/ml
  intracellular [Ca2+] influx: ≤ 243 nM
[4]; hydrogen peroxide + sulfuretin 0.1 μg/ml
  caspase-3 expression: ≥ 24%
[4]; hydrogen peroxide + sulfuretin 0.5 μg/ml
  caspase-3 expression: ≥ 51%
[4]; hydrogen peroxide + sulfuretin 1 μg/ml
  caspase-3 expression: ≥ 127%
[5]; sulfuretin 1 mg/kg, p.o., one hour before training trial, scopolamine 0.5 mg/kg, i.p. (p<0.05)
  scopolamine-induced decrease of step-through latency time (test trial): blocked this decrease
[5]; sulfuretin p.o., training trial
  latencies during the training trials: did not change
[6]
  LDH activity (LDH release): significantly decreased
